Reference: ChEMBL document CHEMBL3393019, “Synthesis and evaluation of NS5A inhibitors containing diverse heteroaromatic cores” (Bioorg Med Chem Lett, 2015)

Columns and labels:
Hepatitis C virus [1] = experiment: Antiviral activity against Hepatitis C virus genotype 1b infected in human Huh-5.2 cells assessed as decrease in HCV replicon RNA replication after 4 days by luciferase assay; type: functional, cell-based, Hepacivirus hominis; conditions: Huh-5-2, 96 h
Hepatitis C virus [2] = experiment: Antiviral activity against Hepatitis C virus genotype 1a infected in W11.8 cells assessed as decrease in NS5A expression in replicon cell after 4 days by luminescence based ELISA; type: functional, Hepacivirus hominis; conditions: subtype 1a, W11.8, 96 h
[3] = Cytotoxicity against human Huh7ET cells by [3H]thymidine incorporation assay; type: cell-based, Huh-7
[4] = Half life in po dosed rat; type: ADME, organism-based; conditions: in vivo
[5] = Clearance in iv dosed rat; type: ADME, organism-based; conditions: in vivo
[6] = Half life in iv dosed rat; type: ADME, organism-based; conditions: in vivo
[7] = Volume of distribution at steady state in iv dosed rat; type: ADME, organism-based; conditions: in vivo, read-out: Vdss
[8] = AUC (0 to 8 hrs) in po dosed rat; type: ADME, organism-based; design: time < 8 hr, route oral; conditions: plasma
[9] = Cmax in po dosed rat; type: ADME, organism-based; design: route oral; conditions: in vivo
[10] = Oral bioavailability in rat; type: ADME, organism-based; conditions: in vivo

EC50 (Hepatitis C virus [1])	EC50 (Hepatitis C virus [2])	half-life [4]	clearance [5]	half-life [6]	Vd [7]	AUC(0-t) at 8 h [8]	Cmax [9]	bioavailability [10]	SMILES	CC50 [3]
223 nM	> 2000 nM								COC(=O)N[C@H](C(=O)N1C[C@@H](C)C[C@H]1c1nc2cc(-c3ccc(-c4ccc5oc([C@@H]6C[C@H](C)CN6C(=O)[C@@H](NC(=O)OC)C(C)C)nc5c4)cc3)ccc2o1)C(C)C	7000 nM
0.017 nM	58 nM								COC(=O)N[C@H](C(=O)N1C[C@@H](C)C[C@H]1c1nc2cc(-c3ccc(-c4ccc5oc([C@@H]6C[C@H](C)CN6C(=O)[C@@H](NC(=O)OC)C(C)C)nc5c4)cc3)ccc2[nH]1)C(C)C	> 20000 nM
23 nM	> 2000 nM								COC(=O)N[C@H](C(=O)N1C[C@@H](C)C[C@H]1c1nc2cc(-c3cc4sc(-c5ccc6oc([C@@H]7C[C@H](C)CN7C(=O)[C@@H](NC(=O)OC)C(C)C)nc6c5)cc4s3)ccc2o1)C(C)C	> 20000 nM
0.003 nM	0.032 nM								COC(=O)N[C@H](C(=O)N1C[C@@H](C)C[C@H]1c1nc2cc(-c3cc4sc(-c5ccc6oc([C@@H]7C[C@H](C)CN7C(=O)[C@@H](NC(=O)OC)C(C)C)nc6c5)cc4s3)ccc2[nH]1)C(C)C	> 20000 nM
0.023 nM	11 nM								COC(=O)N[C@H](C(=O)N1C[C@@H](C)C[C@H]1c1nc(-c2ccc(-c3ccc(-c4ccc5oc([C@@H]6C[C@H](C)CN6C(=O)[C@@H](NC(=O)OC)C(C)C)nc5c4)cc3)cc2)c[nH]1)C(C)C	> 20000 nM
0.006 nM	630 nM								COC(=O)N[C@H](C(=O)N1C[C@@H](C)C[C@H]1c1nc2ccc(-c3ccc(-c4ccc5nc([C@@H]6C[C@H](C)CN6C(=O)[C@@H](NC(=O)OC)C(C)C)oc5c4)cc3)cc2o1)C(C)C	7000 nM
0.008 nM	1.8 nM								COC(=O)N[C@H](C(=O)N1C[C@@H](C)C[C@H]1c1nc2cc(-c3ccc(-c4ccc5nc([C@@H]6C[C@H](C)CN6C(=O)[C@@H](NC(=O)OC)C(C)C)oc5c4)cc3)ccc2[nH]1)C(C)C	> 20000 nM
0.019 nM	43 nM								COC(=O)N[C@H](C(=O)N1C[C@@H](C)C[C@H]1c1nc2ccc(-c3cc4sc(-c5ccc6nc([C@@H]7C[C@H](C)CN7C(=O)[C@@H](NC(=O)OC)C(C)C)oc6c5)cc4s3)cc2o1)C(C)C	> 20000 nM
0.004 nM	0.029 nM	14.8 h	6.2 mL/min/kg	5.6 h	2.8 L/kg	376 ng·h/mL	0.01 ng/mL	7.3%	COC(=O)N[C@H](C(=O)N1C[C@@H](C)C[C@H]1c1nc2cc(-c3cc4sc(-c5ccc6nc([C@@H]7C[C@H](C)CN7C(=O)[C@@H](NC(=O)OC)C(C)C)oc6c5)cc4s3)ccc2[nH]1)C(C)C	> 20000 nM
0.005 nM	0.164 nM								COC(=O)N[C@H](C(=O)N1C[C@@H](C)C[C@H]1c1nc(-c2ccc(-c3ccc(-c4ccc5nc([C@@H]6C[C@H](C)CN6C(=O)[C@@H](NC(=O)OC)C(C)C)oc5c4)cc3)cc2)c[nH]1)C(C)C	> 20000 nM
0.016 nM	0.021 nM								COC(=O)N[C@H](C(=O)N1C[C@@H](C)C[C@H]1c1ncc(-c2cc3sc(-c4ccc5[nH]c([C@@H]6C[C@H](C)CN6C(=O)[C@@H](NC(=O)OC)C(C)C)nc5c4)cc3s2)[nH]1)C(C)C	> 20000 nM
0.006 nM	0.008 nM	17.2 h	8.1 mL/min/kg	3.5 h	1.6 L/kg	281 ng·h/mL	0.01 ng/mL	8.4%	COC(=O)N[C@H](C(=O)N1C[C@@H](C)C[C@H]1c1ncc(-c2ccc(-c3cc4sc(-c5ccc6[nH]c([C@@H]7C[C@H](C)CN7C(=O)[C@@H](NC(=O)OC)C(C)C)nc6c5)cc4s3)cc2)[nH]1)C(C)C	> 20000 nM
0.009 nM	0.004 nM								COC(=O)N[C@H](C(=O)N1C[C@@H](C)C[C@H]1c1nc2cc(-c3cc4sc(-c5ccc6nc([C@@H]7C[C@H](C)CN7C(=O)[C@@H](NC(=O)OC)C(C)C)[nH]c6c5)cc4s3)ccc2[nH]1)C(C)C	> 20000 nM
0.004 nM	0.024 nM								COC(=O)N[C@H](C(=O)N1C[C@@H](C)C[C@H]1c1nc2cc(-c3cc4sc(-c5ccc6nc([C@@H]7C[C@H](C)CN7C(=O)[C@@H](NC(=O)OC)C(C)C)n(C)c6c5)cc4s3)ccc2[nH]1)C(C)C	> 20000 nM
0.004 nM	0.011 nM								COC(=O)N[C@H](C(=O)N1C[C@@H](C)C[C@H]1c1nc2cc(-c3cc4sc(-c5cc6nc([C@@H]7C[C@H](C)CN7C(=O)[C@@H](NC(=O)OC)C(C)C)[nH]c6s5)cc4s3)ccc2[nH]1)C(C)C	> 20000 nM
0.006 nM	1.3 nM								COC(=O)N[C@H](C(=O)N1C[C@@H](C)C[C@H]1c1cc2cc(-c3cc4sc(-c5ccc6[nH]c([C@@H]7C[C@H](C)CN7C(=O)[C@@H](NC(=O)OC)C(C)C)nc6c5)cc4s3)ccc2[nH]1)C(C)C	> 20000 nM
0.006 nM	0.02 nM	16.6 h	4.7 mL/min/kg	4.6 h	1.6 L/kg	659 ng·h/mL	0.02 ng/mL	8.4%	COC(=O)N[C@H](C(=O)N1C[C@@H](C)C[C@H]1c1cc2ccc(-c3cc4sc(-c5ccc6[nH]c([C@@H]7C[C@H](C)CN7C(=O)[C@@H](NC(=O)OC)C(C)C)nc6c5)cc4s3)cc2[nH]1)C(C)C	> 20000 nM
0.025 nM	6.8 nM								COC(=O)N[C@H](C(=O)N1C[C@@H](C)C[C@H]1c1nc2cc(-c3cc4sc(-c5ccc6sc([C@@H]7C[C@H](C)CN7C(=O)[C@@H](NC(=O)OC)C(C)C)nc6c5)cc4s3)ccc2[nH]1)C(C)C	> 20000 nM
0.004 nM	0.006 nM								COC(=O)N[C@H](C(=O)N1C[C@@H](C)C[C@H]1c1cn2cc(-c3cc4sc(-c5ccc6[nH]c([C@@H]7C[C@H](C)CN7C(=O)[C@@H](NC(=O)OC)C(C)C)nc6c5)cc4s3)ccc2n1)C(C)C	8000 nM
